Measured values as given in patent US6864363B2 (priority 2000, dated 2005).
“And” between values parts separate entries of the source, which are not always exact repeats. Identical values can stand only once. Numbered stars: 1 amine (or outer) side, 2 acyl side, 3 side chain; on linkers, the order of the positions; unused ones are H or OH. Peptide text beside a SMILES is read from it. * marks the point of attachment. pNA = O=[N+]([O-])c1ccc(N*)cc1; Suc = O=C(CCC(=O)[*:2])[*:1]; Cbz = O=C(OCc1ccccc1)*

Assays:
[1] = tested on: P. gingivalis DPP-7; type: biochemical, Porphyromonas gingivalis
[2] = tested on: P. gingivalis DPP-7; assay: Kinetic analysis of p-nitroanilide substrate cleavage by DPP-7; type: biochemical, Porphyromonas gingivalis; conditions: for hydrolysis of chromogenic substrate by DPP-7: p-nitroanilide substrates; for Km / Vmax: 0.2 M HEPES, pH 7.8, 37° C.
Experimental: Kinetic Analysis—Routinely, the dipeptidylpeptidase amidolytic activity was measured with H-Ala-Phe-pNA (1 mM) in 0.2 M HEPES, pH 7.8 at 37° C. The reaction was followed for specific time intervals in a thermostated ELISA reader (SpectraMax, Applied Biosystem) and the release of p-nitroaniline was monitored at 405 nm. Other p-nitroanilide substrates were used in the same manner. For inhibition studies, the enzyme was first preincubated with an inhibitor for 15 minutes at 37° C., substrate added, and residual activity recorded. The initial steady-state velocity (v0) was determined by continuous assay for the range of substrate concentrations (100 nM to 1 mM). Km and Vmax were determined by hyperbolic regression of the kinetic data using the software package Hyper Version 1.02 obtained from Dr. J. S. Easterby (University of Liverpool, UK).
Substrate Specificity—Among several chromogenic substrates tested, only those with an aliphatic or an aromatic side chain residues in the second, penultimate position were rapidly hydrolyzed by DPP-7 (Table 2).

| Compound | hydrolysis of chromogenic substrate by DPP-7 [2] | other results |
| --- | --- | --- |
| C[C@H](NC(=O)CN)C(=O)O [Gly-Ala] (H-Gly-Ala-OH) |  | % of residual activity [1]: 102% |
| NC(N)=NCCC[C@H](N)C(=O)NCC(=O)O [Arg-Gly] (H-Arg-Gly-OH) |  | % of residual activity [1]: 84% |
| CCCCCCCCCCCCOS(=O)(=O)[O-].[Na+] [SDS] |  | inactivation of / influence on DPP-7 activity (in words) [1]: not sensitive to inactivation |
| Triton X-100 |  | % of residual activity [1]: 144% and 103% and 94%; inactivation of / influence on DPP-7 activity (in words) [1]: not sensitive to inactivation |
| α2-macroglobulin: human plasma inhibitor |  | inactivation of / influence on DPP-7 activity (in words) [1]: did not effect enzyme activity |
| C[C@H](N)C(=O)NCC(=O)O [Ala-Gly] (H-Ala-Gly-OH) |  | % of residual activity [1]: 96% |
| C[C@H](NC(=O)CCC(=O)O)C(=O)N[C@@H](C)C(=O)Nc1ccc([N+](=O)[O-])cc1 [N-suc-Ala-Ala-pNA] (Suc-Ala-Ala-pNA) | none of these was hydrolysed |  |
| N[C@@H](Cc1ccccc1)C(=O)Nc1ccc([N+](=O)[O-])cc1 [H-Phe-pNA] | none of these was hydrolysed |  |
| NCC(=O)Nc1ccc([N+](=O)[O-])cc1 [H-Gly-pNA] | none of these was hydrolysed |  |
| CC(C)C[C@H](NC(=O)[C@@H]1CCCN1C(=O)[C@H](C)NC(=O)[C@H](C)NC(=O)CCC(=O)O)C(=O)Nc1ccc([N+](=O)[O-])cc1 [N-suc-Ala-Ala-Pro-Leu-pNA] (Suc-AAPL-pNA) | none of these was hydrolysed |  |
| C[C@H](N)C(=O)NCC(=O)N[C@@H](CCCNC(=N)N)C(=O)Nc1ccc([N+](=O)[O-])cc1 [H-Ala-Gly-Arg-pNA] (H-Ala-Gly-Arg-pNA) | none of these was hydrolysed |  |
| C[C@H](N)C(=O)N[C@@H](Cc1ccccc1)C(=O)N1CCC[C@H]1C(=O)Nc1ccc([N+](=O)[O-])cc1 [H-Ala-Phe-Pro-pNA] (H-Ala-Phe-Pro-pNA) | none of these was hydrolysed |  |
| NC(N)=NCCCC(NC(=O)c1ccccc1)C(=O)Nc1ccc([N+](=O)[O-])cc1 (racemic) [Nα-benzoyl-DL-arginine-pNA] | none of these was hydrolysed |  |
| CC(C)C[C@H](N)C(=O)N[C@H](C(=O)N[C@@H](CCCNC(=N)N)C(=O)Nc1ccc([N+](=O)[O-])cc1)[C@@H](C)O [H-Leu-Thr-Arg-pNA] (H-Leu-Thr-Arg-pNA) | none of these was hydrolysed |  |
| N=C(N)NCCC[C@H](NC(=O)OCc1ccccc1)C(=O)Nc1ccc([N+](=O)[O-])cc1 [Z-Arg-pNA] | none of these was hydrolysed |  |
| NCC(=O)NC(Cc1ccccc1)C(=O)Nc1ccc([N+](=O)[O-])cc1 (stereo not drawn) [H-Gly-Phe-pNA] |  | Km [2]: 256 µM; Vmax [2]: 54.54 |
| C[C@H](N)C(=O)N[C@@H](Cc1ccccc1)C(=O)Nc1ccc([N+](=O)[O-])cc1 [H-Ala-Phe-pNA] |  | Km [2]: 441 µM; Vmax [2]: 170.06 |
| NC(N)=NCCC[C@H](NC(=O)[C@H](Cc1ccccc1)NC(=O)OCc1ccccc1)C(=O)Nc1ccc([N+](=O)[O-])cc1 [Z-Phe-Arg-pNA] (Cbz-Phe-Arg-pNA) | none of these was hydrolysed |  |
| C[C@H](NC(=O)CCC(=O)O)C(=O)N[C@@H](C)C(=O)N1CCC[C@H]1C(=O)N[C@@H](CCC(=O)O)C(=O)Nc1ccc([N+](=O)[O-])cc1 [N-suc-Ala-Ala-Pro-Glu-pNA] (Suc-AAPE-pNA) | none of these was hydrolysed |  |
| NCCCC[C@H](NC(=O)OCc1ccccc1)C(=O)Nc1ccc([N+](=O)[O-])cc1 [Z-Lys-pNA] | none of these was hydrolysed |  |
| NCC(=O)N[C@@H](CCCN=C(N)N)C(=O)Nc1ccc([N+](=O)[O-])cc1 [H-Gly-Arg-pNA] (H-Gly-Arg-pNA) | none of these was hydrolysed |  |
